Like-named read-outs stand apart in the source and are kept apart here.
Key:
Format in all cases: in vivo
[1] = system: Plasmopara vilicola (the causal agent of grape downy mildew); experiment: Test A: grape downy mildew, test suspension sprayed on grape seedlings after inoculation, visual disease rating; settings: for pest or weed control at 40 ppm: Plasmopara, 144 h, read-out: Percent Disease Control, Test A
Summary of the method: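 Curative spray: spores applied first, plants kept 24 h in saturated air at 20 °C and dried before treatment, then 5 days at 20 °C plus 24 h saturated. Suspension: acetone (3% of volume) in 1:1 acetone/water, 250 ppm Trem 014, sprayed to run-off (200 ppm ≈ 500 g/ha); visual 0–100 control rating.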

[2] = system: Phytophthora infestans (the causal agent of tomato late blight); experiment: whole plant or invertebrate; settings: for pest or weed control at 40 ppm: Phytophthora infestans, 144 h, read-out: Percent Disease Control, Test B
[3] = system: Phytophthora infestans (the causal agent of tomato late blight); experiment: whole plant or invertebrate; settings: for pest or weed control at 40 ppm: Phytophthora infestans, 96 h, read-out: Percent Disease Control, Test C
[4] = compounds without asterisk (application rate not given), 100 = 100% disease control, 0 = no control relative to the controls

SMILES | Percent Disease Control, Test A [1, 4] [%] | Percent Disease Control, Test B [2, 4] [%] | Percent Disease Control, Test C [3, 4] [%] | Percent Disease Control, Test A ([1]; * tested at 40 ppm) [%] | Percent Disease Control, Test B ([2]; * tested at 40 ppm) [%] | Percent Disease Control, Test C ([3]; * tested at 40 ppm) [%] | further results
Cc1cc(C(F)(F)F)nn1CC(=O)N1CCC(c2nc(-c3cccc(Oc4ccccc4)c3)cs2)CC1 [Compound 75] | 72 | 24 | 0 |  |  |  | 
Cc1cc(C(F)(F)F)nn1CC(=O)N1CCC(c2nc(-c3ccn(-c4ccccc4)n3)cs2)CC1 [Compound 76] | 72 | 92 | 67 |  |  |  | 
Cc1ccc(-n2cc(-c3csc(C4CCN(C(=O)Cn5nc(C(F)(F)F)cc5C)CC4)n3)nn2)cc1 [Compound 77] | 87 | 100 | 99 |  |  |  | 
Cc1cc(C(F)(F)F)nn1CC(=O)N1CCC(c2nc(-c3ccnn3-c3ccccc3)cs2)CC1 [Compound 78] | 0 | 0 | 0 |  |  |  | 
Cc1cc(C(F)(F)F)nn1CC(=O)N1CCC(c2nc(C3=NO[C@@H](c4ccccc4F)C3)cs2)CC1 [Compound 79] | 100 | 100 | 66 |  |  |  | 
COC1ON=C(c2csc(C3CCN(C(=O)Cn4nc(C(F)(F)F)cc4C)CC3)n2)CC1c1ccccc1 (stereo not drawn) [Compound 81] | 93 | 92 | 77 |  |  |  | 
Cc1cc(C(F)(F)F)nn1CC(=O)N1CCC(c2nc(-c3nn(-c4ccccc4)c(=O)[nH]3)cs2)CC1 [Compound 82] | 0 | 88 | 26 |  |  |  | 
Cc1cc(C(F)(F)F)nn1CC(=O)N1CCC(c2nc(-c3ccc(-c4ccccc4)o3)cs2)CC1 [Compound 83] | 46 | 92 | 0 |  |  |  | 
Cc1cc(C(F)(F)F)nn1CC(=O)N1CCC(c2nc(-c3csc(-c4ccccc4)n3)cs2)CC1 [Compound 84] | 67 | 33 | 0 |  |  |  | 
Cc1cc(C(F)(F)F)nn1CC(=O)N1CCC(c2nc(-c3ccc(-c4ccccc4)s3)cs2)CC1 [Compound 85] | 85 | 70 | 0 |  |  |  | 
Cc1cc(C(F)(F)F)nn1CC(=O)N1CCC(c2nc(-c3cc(-c4ccc(Cl)cc4Cl)no3)cs2)CC1 [Compound 86] | 83 | 79 | 14 |  |  |  | 
Cc1cc(C(F)(F)F)nn1CC(=O)N1CCC(c2nc(-c3cc(-c4ccc(Cl)c(Cl)c4)no3)cs2)CC1 [Compound 87] | 76 | 44 | 0 |  |  |  | 
Cc1cc(C(F)(F)F)nn1CC(=O)N1CCC(c2nc(C3=NOC(c4ccc5ccccc5c4)C3)cs2)CC1 (stereo not drawn) [Compound 88] |  |  |  | 99 | 100 | 99 | 
Cc1cc(C(F)(F)F)nn1CC(=O)N1CCC(c2nc(C3=NOC(c4ccc(C(C)(C)C)cc4)C3)cs2)CC1 (stereo not drawn) [Compound 91] |  |  |  | 99 | 100 | 91 | 
Cc1cc(C(F)(F)F)nn1CC(=O)N1CCC(c2nc(C3=NCC(c4ccccc4)N3)cs2)CC1 (stereo not drawn) [Compound 92] |  |  |  | 13 | 33 | 9 | 
Cc1cc(C(F)(F)F)nn1CC(=O)N1CCC(c2nc(C3=NOC(c4ccc(F)cc4)C3)cs2)CC1 (stereo not drawn) [Compound 96] |  |  |  | 100 | 100 | 99 | 
Cc1cc(C(F)(F)F)nn1CC(=O)N1CCC(c2nc(C3=NOC(c4ccc(C(F)(F)F)cc4)C3)cs2)CC1 (stereo not drawn) [Compound 97] |  |  |  | 99 | 100 | 95 | 
Cc1cc(C(F)(F)F)nn1CC(=O)N1CCC(c2nc(C3=NOC(c4ccccn4)C3)cs2)CC1 (stereo not drawn) [Compound 98, 1-[4-[4-(4,5-dihydro-5-(2-pyridinyl)-3-isoxazolyl)-2-thiazolyl]-1-piperidinyl]-2-[5-methyl-3-(trifluoromethyl)-1H-pyrazol-1-yl]ethanone] |  |  |  |  |  |  | pest or weed control at 40 ppm ([1]; * tested at 40 ppm): 77%; pest or weed control at 40 ppm [2]: 100%; pest or weed control at 40 ppm [3]: 99%
Cc1cc(C(F)(F)F)nn1CC(=O)N1CCC(c2nc(C3=NC4CCCCC4N3)cs2)CC1 (stereo not drawn) [Compound 99] | 31 | 33 | 0 |  |  |  | 

SMILES | Percent Disease Control, Test A [1, 4] [%] | Percent Disease Control, Test B [2, 4] [%] | Percent Disease Control, Test C [3, 4] [%] | Percent Disease Control, Test A ([1]; * tested at 40 ppm) [%] | Percent Disease Control, Test B ([2]; * tested at 40 ppm) [%] | Percent Disease Control, Test C ([3]; * tested at 40 ppm) [%] | further results
Cc1cc(C(F)(F)F)nn1CC(=O)N1CCC(c2nc(C3=NOC(c4ccccc4)(C(C)C)C3)cs2)CC1 (stereo not drawn) [Compound 100] |  |  |  | 100 | 100 | 99 | 
CCCC1(c2ccccc2)CC(c2csc(C3CCN(C(=O)Cn4nc(C(F)(F)F)cc4C)CC3)n2)=NO1 (stereo not drawn) [Compound 101] |  |  |  | 100 | 100 | 99 | 
Cc1cc(C(F)(F)F)nn1CC(=O)N1CCC(c2nc(C3=NOC4(CCSc5ccccc54)C3)cs2)CC1 (stereo not drawn) [Compound 102, 1-[4-[4-(2,3-dihydrospiro[4H-1-benzothiopyran-4,5′(4′H)-isoxazol]-3′-yl)-2-thiazolyl]-1-piperidinyl]-2-[5-methyl-3-(trifluoromethyl)-1H-pyrazol-1-yl]ethanone] |  |  |  |  |  |  | pest or weed control at 40 ppm ([1]; * tested at 40 ppm): 100%; pest or weed control at 40 ppm [2]: 100%; pest or weed control at 40 ppm [3]: 99%
Cc1cc(C(F)(F)F)nn1CC(=O)N1CCC(c2nc(C3=NOC(c4ccccc4)(C4CC4)C3)cs2)CC1 (stereo not drawn) [Compound 103] |  |  |  | 100 | 100 | 99 | 
Cc1cc(C(F)(F)F)nn1CC(=O)N1CCC(c2nc(C3=NOC4(CCC(c5ccccc5)CC4)C3)cs2)CC1 (stereo not drawn) [Compound 104] | 100 | 100 | 99 |  |  |  | 
CCC1(c2ccccc2)CC(c2csc(C3CCN(C(=O)Cn4nc(C(F)(F)F)cc4C)CC3)n2)=NO1 (stereo not drawn) [Compound 105] |  |  |  | 100 | 100 | 99 | 
Cc1cc(C(F)(F)F)nn1CC(=O)N1CCC(c2nc(C3=NOC(c4ccc(-c5ccccc5)cc4)C3)cs2)CC1 (stereo not drawn) [Compound 106] |  |  |  | 80 | 85 | 24 | 
O=C(Cn1nc(C(F)(F)F)cc1Cl)N1CCC(c2nc(C3=NOC(c4ccccc4)C3)cs2)CC1 (stereo not drawn) [Compound 107, 2-[5-chloro-3-(trifluoromethyl)-1H-pyrazol-1-yl]-1-[4-[4-(4,5-dihydro-5-phenyl-3-isoxazolyl)-2-thiazolyl]-1-piperidinyl]ethanone] |  |  |  |  |  |  | pest or weed control at 40 ppm ([1]; * tested at 40 ppm): 100%; pest or weed control at 40 ppm [2]: 100%; pest or weed control at 40 ppm [3]: 99%
Cc1cc(C(F)(F)F)nn1CC(=O)N1CCC(c2nc(C3=NC(c4ccccc4)C(c4ccccc4)N3)cs2)CC1 (stereo not drawn) [Compound 108] | 0 | 58 | 0 |  |  |  | 
Cc1cc(C(F)(F)F)nn1CC(=O)N1CCC(c2nc(C3=NOC4(CCCc5sccc54)C3)cs2)CC1 (stereo not drawn) [Compound 109] |  |  |  | 100 | 100 | 98 | 
Cc1cc(C(F)(F)F)nn1CC(=O)N1CCC(c2nc(C3=NOC(c4ccc(O)cc4)C3)cs2)CC1 (stereo not drawn) [Compound 110] |  |  |  | 97 | 100 | 99 | 
Cc1cc(C(F)(F)F)nn1CC(=O)N1CCC(c2nc(C3=NOC(c4cnccn4)C3)cs2)CC1 (stereo not drawn) [Compound 111] |  |  |  | 97 | 100 | 97 | 
Cc1cc(C(F)(F)F)nn1CC(=O)N1CCC(c2nc(C3=NOC(CN4Cc5cccc(Cl)c5S4(=O)=O)C3)cs2)CC1 (stereo not drawn) [Compound 112] |  |  |  | 76 | 100 | 68 | 
CC(=O)Oc1ccc(C2CC(c3csc(C4CCN(C(=O)Cn5nc(C(F)(F)F)cc5C)CC4)n3)=NO2)cc1 (stereo not drawn) [Compound 113] |  |  |  | 99 | 100 | 99 | 
Cc1cc(C(F)(F)F)nn1CC(=O)N1CCC(c2nc(C3=NOC(c4ccccc4C(F)(F)F)C3)cs2)CC1 (stereo not drawn) [Compound 114] |  |  |  | 100 | 100 | 99 | 
Cc1cc(C(F)(F)F)nn1CC(=O)N1CCC(c2nc(C3=NOC(c4cccc(C(F)(F)F)c4)C3)cs2)CC1 (stereo not drawn) [Compound 115] |  |  |  | 100 | 100 | 99 | 
COC(=O)CC1CC(c2csc(C3CCN(C(=O)Cn4nc(C(F)(F)F)cc4C)CC3)n2)=NO1 (stereo not drawn) [Compound 116] | 46 | 100 | 79 |  |  |  | 
Cc1cc(C(F)(F)F)nn1CC(=O)N1CCC(c2nc(C3=NOC(S(=O)(=O)c4ccccc4)C3)cs2)CC1 (stereo not drawn) [Compound 117] |  |  |  | 93 | 100 | 99 | 
Cc1cc(C(F)(F)F)nn1CC(=O)N1CCC(c2nc(C3=NC[C@@H](c4ccccc4)N3C)cs2)CC1 [Compound 118] |  |  |  | 0 | 87 | 16 | 
